Measurements reported in PubChem BioAssay (NCI).
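Cultured in 96-well plates, cells were exposed to test compound for 48 hours across five concentrations. TGI: total growth inhibition.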

Experiments:
Experiment in all cases: growth of human tumour cells (NCI), 48 h
SF-295 CNS = tested on: SF-295 CNS
COLO 205 colon = tested on: COLO 205 colon
MOLT-4 leukemia = tested on: MOLT-4 leukemia
UACC-62 melanoma = tested on: UACC-62 melanoma
NCI-H226 lung = tested on: NCI-H226 lung
HCT-15 colon = tested on: HCT-15 colon
SNB-78 CNS = tested on: SNB-78 CNS
A549 NSCLC = tested on: A549 NSCLC
M19-MEL melanoma = tested on: M19-MEL melanoma
SN12C renal = tested on: SN12C renal
HL-60(TB) leukemia = tested on: HL-60(TB) leukemia
HCC-2998 colon = tested on: HCC-2998 colon
M14 melanoma = tested on: M14 melanoma
MALME-3M melanoma = tested on: MALME-3M melanoma
DMS 114 small cell lung = tested on: DMS 114 small cell lung
LXFL 529 NSCLC = tested on: LXFL 529 NSCLC
SNB-75 CNS = tested on: SNB-75 CNS
SF-268 CNS = tested on: SF-268 CNS
HOP-18 NSCLC = tested on: HOP-18 NSCLC
CCRF-CEM leukemia = tested on: CCRF-CEM leukemia
SK-MEL-5 melanoma = tested on: SK-MEL-5 melanoma
SR leukemia = tested on: SR leukemia
SF-539 CNS = tested on: SF-539 CNS
U251 CNS = tested on: U251 CNS
ACHN renal = tested on: ACHN renal
NCI-H460 lung = tested on: NCI-H460 lung
RPMI-8226 leukemia = tested on: RPMI-8226 leukemia
A498 renal = tested on: A498 renal
NCI-H23 lung = tested on: NCI-H23 lung
HCT-116 colon = tested on: HCT-116 colon
786-0 renal = tested on: 786-0 renal
DLD-1 colon = tested on: DLD-1 colon
OVCAR-8 ovarian = tested on: OVCAR-8 ovarian
TK-10 renal = tested on: TK-10 renal
HOP-62 NSCLC = tested on: HOP-62 NSCLC
OVCAR-4 ovarian = tested on: OVCAR-4 ovarian
NCI-H522 lung = tested on: NCI-H522 lung
EKVX NSCLC = tested on: EKVX NSCLC
LOX IMVI melanoma = tested on: LOX IMVI melanoma
OVCAR-5 ovarian = tested on: OVCAR-5 ovarian
UO-31 renal = tested on: UO-31 renal
SW-620 colon = tested on: SW-620 colon
HT29 colon = tested on: HT29 colon
UACC-257 melanoma = tested on: UACC-257 melanoma
SK-MEL-2 melanoma = tested on: SK-MEL-2 melanoma
HOP-92 NSCLC = tested on: HOP-92 NSCLC
K-562 leukemia = tested on: K-562 leukemia
KM12 colon = tested on: KM12 colon
CAKI-1 renal = tested on: CAKI-1 renal
IGROV1 ovarian = tested on: IGROV1 ovarian
SK-OV-3 ovarian = tested on: SK-OV-3 ovarian
RXF-631 renal = tested on: RXF-631 renal
SK-MEL-28 melanoma = tested on: SK-MEL-28 melanoma
DMS 273 small cell lung = tested on: DMS 273 small cell lung
RXF 393 renal = tested on: RXF 393 renal
SNB-19 CNS = tested on: SNB-19 CNS
XF 498 CNS = tested on: XF 498 CNS
KM20L2 colon = tested on: KM20L2 colon

Compound: O=C(/C(=C/c1ccc(O)cc1)c1ccccc1)c1ccccc1
- TGI (SF-295 CNS): 33.4 µM
- TGI (COLO 205 colon): 32.8 µM
- TGI (MOLT-4 leukemia): 37.3 µM
- TGI (UACC-62 melanoma): 27.1 µM
- TGI (NCI-H226 lung): 30.8 µM
- TGI (HCT-15 colon): 31.9 µM
- TGI (SNB-78 CNS): 70.9 µM
- TGI (A549 NSCLC): 41.7 µM
- TGI (M19-MEL melanoma): 32.4 µM
- TGI (SN12C renal): 32.5 µM
- TGI (HL-60(TB) leukemia): 31.6 µM
- TGI (HCC-2998 colon): 32 µM
- TGI (M14 melanoma): 30.9 µM
- TGI (MALME-3M melanoma): 37.1 µM
- TGI (DMS 114 small cell lung): 24.4 µM
- TGI (LXFL 529 NSCLC): 35.7 µM
- TGI (SNB-75 CNS): 42.5 µM
- TGI (SF-268 CNS): 34.6 µM
- TGI (HOP-18 NSCLC): 33.4 µM
- TGI (CCRF-CEM leukemia): 80.2 µM
- TGI (SK-MEL-5 melanoma): 28.3 µM
- TGI (SR leukemia): 61.2 µM
- TGI (SF-539 CNS): 30.3 µM
- TGI (U251 CNS): 29.7 µM
- TGI (ACHN renal): 29.6 µM
- TGI (NCI-H460 lung): 38.4 µM
- TGI (RPMI-8226 leukemia): 42.3 µM
- TGI (A498 renal): 32 µM
- TGI (NCI-H23 lung): 30.7 µM
- TGI (HCT-116 colon): 31.5 µM
- TGI (786-0 renal): 34.5 µM
- TGI (DLD-1 colon): 31 µM
- TGI (OVCAR-8 ovarian): 60 µM
- TGI (TK-10 renal): 48.5 µM
- TGI (HOP-62 NSCLC): 33.9 µM
- TGI (OVCAR-4 ovarian): 55.2 µM
- TGI (NCI-H522 lung): 28.7 µM
- TGI (EKVX NSCLC): 45.8 µM
- TGI (LOX IMVI melanoma): 25.9 µM
- TGI (OVCAR-5 ovarian): 32 µM
- TGI (UO-31 renal): 29.4 µM
- TGI (SW-620 colon): 32 µM
- TGI (HT29 colon): 32.1 µM
- TGI (UACC-257 melanoma): 32.9 µM
- TGI (SK-MEL-2 melanoma): 24.1 µM
- TGI (HOP-92 NSCLC): 18.3 µM
- TGI (K-562 leukemia): 44.4 µM
- TGI (KM12 colon): 29.1 µM
- TGI (CAKI-1 renal): 38.2 µM
- TGI (IGROV1 ovarian): 38.3 µM
- TGI (SK-OV-3 ovarian): 40.2 µM
- TGI (RXF-631 renal): 29.3 µM
- TGI (SK-MEL-28 melanoma): 31.9 µM

Compound: CC(C)=CCC/C(C)=C/C=C/C(C)=C/C1C[C@@]2(C(O)O1)[C@H](CCCO)/C(=C(/C)C=O)CC[C@]2(C)O (stereo partly specified)
- TGI (SF-295 CNS): 27.7 µM
- TGI (COLO 205 colon): 13.4 µM
- TGI (MOLT-4 leukemia): 30.8 µM
- TGI (DMS 273 small cell lung): 7.82 µM
- TGI (NCI-H226 lung): 40.9 µM
- TGI (HCT-15 colon): 31 µM
- TGI (RXF 393 renal): 35.2 µM
- TGI (SNB-19 CNS): 35.4 µM
- TGI (SNB-78 CNS): 42 µM
- TGI (A549 NSCLC): 25 µM
- TGI (M19-MEL melanoma): 32.4 µM
- TGI (SN12C renal): 30.8 µM
- TGI (HL-60(TB) leukemia): 29 µM
- TGI (HCC-2998 colon): 29.4 µM
- TGI (M14 melanoma): 32.2 µM
- TGI (MALME-3M melanoma): 22.6 µM
- TGI (DMS 114 small cell lung): 27.4 µM
- TGI (SNB-75 CNS): 69.9 µM
- TGI (SF-268 CNS): 33.3 µM
- TGI (HOP-18 NSCLC): 33.4 µM
- TGI (SR leukemia): 37.2 µM
- TGI (SF-539 CNS): 25 µM
- TGI (ACHN renal): 25.2 µM
- TGI (NCI-H460 lung): 25.5 µM
- TGI (HCT-116 colon): 37.9 µM
- TGI (XF 498 CNS): 32.7 µM
- TGI (DLD-1 colon): 44.4 µM
- TGI (OVCAR-8 ovarian): 51 µM
- TGI (TK-10 renal): 62.8 µM
- TGI (NCI-H522 lung): 36.7 µM
- TGI (EKVX NSCLC): 25.1 µM
- TGI (LOX IMVI melanoma): 28 µM
- TGI (OVCAR-5 ovarian): 55.6 µM
- TGI (UO-31 renal): 33.9 µM
- TGI (SW-620 colon): 27.8 µM
- TGI (HT29 colon): 33.3 µM
- TGI (UACC-257 melanoma): 56.5 µM
- TGI (SK-MEL-2 melanoma): 34.6 µM
- TGI (K-562 leukemia): 28.4 µM
- TGI (CAKI-1 renal): 25.6 µM
- TGI (IGROV1 ovarian): 40.6 µM
- TGI (SK-MEL-28 melanoma): 32.3 µM
- TGI (KM20L2 colon): 29.1 µM
